Common to all, as to type: cell-based, human
The test system of experiment [1] is gastric adenocarcinoma (BGC-823). In words: in vitro MTT proliferation assay, BGC-823 cells. As to conditions: 48 hrs; for inhibition of cancer cell line BGC-823: 0.3-100 μg/ml, absorbance at 492 nm; for IC50 values for BGC-823: calculated with XLfit. Here is the method:
(§1) An in vitro assay was conducted to evaluate the efficacy of LuA, LuB, and LuE in inhibiting proliferation of cancer cells.
(§2) Four human tumor cell lines, i.e., gastric adenocarcinoma (AGS, BGC-823), lung carcinoma (A549), and lung adenocarcinoma (SPC-A-1), were purchased from the Cell Bank of Shanghai Institute of Cell Biology, Chinese Academy of Sciences, and cultured in Iscove's Modified Dulbecco's Medium (IMDM) containing 10% fetal bovine serum (FBS) in an incubator at 37° C. under 5% CO2. Cells of 70˜80% confluence were trypsinized, resuspended in IMDM medium containing 10% FBS at 1×10^5 cells/ml, and seeded in 96-well plates (100 μl in each well). The plates were incubated at 37° C. under 5% CO2 overnight.
(§3) A DMSO solution containing LuA, LuB, or LuE was added to each “treatment” well. Efficacy of LuA, LuB, and LuE at six concentrations, 100, 30, 10, 3, 1, and 0.3 μg/ml, was studied. Wells, to each of which a DMSO solution (containing no LuA, LuB, or LuE) was added, were used as “control;” and wells, to each of which no LuA, LuB, LuE, or DMSO was added, were used as “background.” The plates were then incubated at 37° C. under 5% CO2 for 48 hrs.
(§4) 10 μl of 3-(4,5-dimethyl-thiazol-2-yl)-2,5-diphenyl tetrazolium bromide in phosphate buffered saline (PBS), 5 mg/ml, was added to all wells except the background wells. After incubation for 3-4 hrs, the cells were collected by spinning at 1000 rpm for 15 minutes, followed by removal of the supernatants by vacuum. The cells thus collected in each well, after wash with 150 μl of PBS, were placed in 150 μl of DMSO.
(§5) The plates were then placed on a shaker at 150 rpm for 15 minutes to dissolve the precipitate in each well. Absorbance was measured at 492 nm using a microplate reader.
(§6) Inhibition ratios for cells treated with LuA, LuB, and LuE, respectively, were calculated according to the following equation: [formula]
(§7) A software program, XLfit (ID Business Solutions), was used to calculate the concentrations of LuA, LuB, and LuE required to reach 10, 20, . . . 90% inhibition (i.e., IC10, IC20, . . . IC90) for each tested tumor cell line.

For experiment [2], the system named is gastric adenocarcinoma (AGS). In words: in vitro MTT proliferation assay, AGS cells. As to conditions: 48 hrs; for inhibition of cancer cell line AGS: 0.3-100 μg/ml, absorbance at 492 nm; for IC50 values for AGS: calculated with XLfit. Here is the method:
as §1, §2, §3, §4, §5, §6, §7

The test system of another experiment is lung carcinoma (A549). In words: in vitro MTT proliferation assay, A549 cells. As to conditions: 48 hrs; for inhibition of cancer cell line A549: 0.3-100 μg/ml, absorbance at 492 nm; for IC50 values for A549: calculated with XLfit. How it is done: as §1, §2, §3, §4, §5, §6, §7
In experiment [3] the test system is lung adenocarcinoma (SPC-A-1). In words: in vitro MTT proliferation assay, SPC-A-1 cells. The settings on record: 48 hrs, 0.3-100 μg/ml, absorbance at 492 nm. How it is done:
as §1, §2, §3, §4, §5, §6, §7

As for `C=C1C(=O)[C@]23C[C@H]1C[C@H](OC(C)=O)[C@H]2[C@]1(C)C[C@H](OC(C)=O)[C@H](OC(C)=O)C(C)(C)[C@H]1[C@@H](OC(C)=O)[C@@H]3O` [LuA, Lushanrubescensin A], in experiment [1], the “inhibition of cancer cell line BGC-823” value is listed as “effectively inhibited” and the “IC50 values for BGC-823” value is on record as “particularly low”. In addition, in experiment [2], the “inhibition of cancer cell line AGS” value was “effectively inhibited” and the “IC50 values for AGS” value is “particularly low”. Further, in the experiment on lung carcinoma (A549), the “inhibition of cancer cell line A549” value is given as “effectively inhibited” and the “IC50 values for A549” value is recorded as “particularly low”. Moreover, the “inhibition of cancer cell line SPC-A-1” value in experiment [3] was “effectively inhibited”.

With `C=C1C(=O)[C@]23C[C@H]1C[C@@H](O)[C@H]2[C@]1(C)C[C@H](OC(C)=O)[C@H](OC(C)=O)C(C)(C)[C@H]1[C@@H](OC(C)=O)[C@@H]3O` [LuE, Lushanrubescensin E], the “inhibition of cancer cell line BGC-823” value in experiment [1] is given as “effectively inhibited”. Also, in experiment [2], the “inhibition of cancer cell line AGS” value was “effectively inhibited”. Further, the “inhibition of cancer cell line A549” value in the experiment with lung carcinoma (A549) is listed as “effectively inhibited”. Also, the “inhibition of cancer cell line SPC-A-1” value in experiment [3] is recorded as “effectively inhibited”.

`C=C1C(=O)[C@]23C[C@H]1C[C@H](O)[C@H]2[C@]1(C)C[C@H](OC(C)=O)[C@H](OC(C)=O)C(C)(C)[C@H]1[C@@H](OC(C)=O)[C@@H]3O` [LuB, Lushanrubescensin B]: in experiment [1], the “inhibition of cancer cell line BGC-823” value was “effectively inhibited” and the “IC50 values for BGC-823” value is listed as “particularly low”. Besides, in experiment [2], the “inhibition of cancer cell line AGS” value is reported as “effectively inhibited” and the “IC50 values for AGS” value is “particularly low”. Further, in the experiment with lung carcinoma (A549), the “inhibition of cancer cell line A549” value is “effectively inhibited” and the “IC50 values for A549” value is “particularly low”. In experiment [3], the “inhibition of cancer cell line SPC-A-1” value is on record as “effectively inhibited”.

(Values after patent US20060160895A1, “Anti-cancer agents” (priority 2004, published 2006).)
